The results in this text go back to US7388017B2, “Inhibitors of serine proteases, particularly hepatitis C virus NS3 protease” (Vertex Pharmaceuticals Incorporated, priority 1996, dated 2008).

Each structure is given as a SMILES string. Starred links: 1 amine or outer side, 2 acyl side, 3 side chain; linkers in the order of their positions; H or OH if unused. Non-standard residues stand in square brackets, D forms with d. Residues, ends and D or L forms follow the SMILES beside them. Groups on a side chain read outwards from the residue. *: point of attachment. NH(1,3-benzodioxol-5-yl) = c1cc2c(cc1N*)OCO2; X19 = O=[N+]([O-])c1cc(N*)ccc1N1CCCCC1; Pyrazinecarbonyl = O=C(c1cnccn1)*; NH(3-Cl-phenyl) = Clc1cccc(N*)c1; X30 = O=[N+]([O-])c1cccc(N*)c1; pNA = O=[N+]([O-])c1ccc(N*)cc1; X28 = c1ccc(Oc2cccc(N*)c2)cc1; Hyp = O=C(O)[CH]1C[CH](O)CN1; NH(3-MeOPh) = COc1cccc(N*)c1; X3 = c1ccc(-c2ccccc2N*)cc1; Isovaleryl = CC(C)CC(=O)*; 3Abz = Nc1cccc(C(=O)O)c1; X18 = CC(=O)c1cccc(N*)c1; X32 = Clc1ccc(N*)c(Cl)c1; X39 = CC(=O)c1ccc(N*)cc1; X43 = Clc1cc(N*)cc(Cl)n1; X6 = Nc1c(Cl)cc(N*)cc1Cl; X17 = c1nc2ccc(N*)cc2s1; X9 = COc1ccc(OC)c(N*)c1; 2Abz = Nc1ccccc1C(=O)O; X14 = Clc1ccc(N*)cc1Cl; X42 = Clc1cccc(N*)c1Cl; X46 = Clc1cccc(Cl)c1N*; Abu = CC[CH](N)C(=O)O; X34 = N#Cc1cccc(N*)c1; X38 = CC(C)c1ccccc1N*; CO = O=C([*:1])[*:2]; NHBn = c1ccc(CN*)cc1; X47 = COc1ccccc1N*

The target in the experiment is T1, HCV NS3 protease (Hepatitis C virus genotype 1a, UniProt P27958).
T1 construct: more particularly HCV NS3 proteases
T1 sequence (P27958 1027-1208): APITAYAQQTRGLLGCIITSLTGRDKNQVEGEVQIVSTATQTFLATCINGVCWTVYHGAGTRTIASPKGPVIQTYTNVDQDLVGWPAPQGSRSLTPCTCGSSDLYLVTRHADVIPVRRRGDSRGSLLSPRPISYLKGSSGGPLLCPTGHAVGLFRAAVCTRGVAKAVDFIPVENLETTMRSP
Put plainly: Enzyme inhibition of HCV NS3 serine protease (cleavage of peptide substrate / EDVV AbuC-p-nitroanilide, with or without NS4A). The format is biochemical. The settings on record: Enzyme inhibition data; Ki from rate vs [inhibitor] plots, Morrison tight binding competitive inhibition fit; 30 C, pH 7.8; read-out: Ki. As to the method: Cleavage reactions were quenched by the addition of an equal volume of a mixture of 10% TFA:acetonitrile (1:1) and activity was assessed on a reversed phase HPLC column (Rainin C18 Microsorb-MV, […], 4.6×250 mm; 0-50% acetonitrile, 0.1% TFA@ 3.33% min) using a Hewlett Packard 1050 instrument with auto-injection and diode array detection at 210 nm and 280 nm (where appropriate). Peptide elution fragments were collected and identified by mass spectrometry and N-terminal sequence analysis. Fragment identity and concentration was further verified by authentic, synthesized products. Initial rates of cleavage were determined at <20% substrate conversion and catalytic parameters were determined assuming Michaelis-Menten kinetics using the MultiFit program (Day Computing, Cambridge, Mass.).
Spectrophotometric assays were run in a 96-well microtiter plate at 30 C, using a SpectraMax 250 reader (Molecular Devices, Sunnyvale, Calif.) with kinetic capability. Cleavage of EDVV AbuC-p-nitroanilide (5A-pNA) substrate was performed with or without […] in the same buffer used for HPLC assays at 30 C, and pNA release was monitored at 405 nm. The extinction-coefficient of p-nitroaniline is independent of pH at values of 5.5. and above [Tuppy, H., et al., Hoppe-Seyler's Z. Physiol. Chem., 329, pp. 278-288 (1962)]; Raybuck and Luong, unpublished observations).
Kinetic constants for the rapid equilibrium ordered bisubstrate reaction were determined from rate vs [4A], [EDVV AbuC-pNA] data by non-linear least squares fitting to equation 1 [Morrison, J. F. Biochim. Biophys. Acta, 185, pp. 269-286 (1969)] as described in the text. Kii and Kis values for peptidyl inhibitors were determined from rate vs [inhibitor], [substrate] data and fitting to the equation for mixed inhibition: rate=Vmax[S]/{Km(1+[I]/Kis)+[S](1+[I]/Kii)} The commercial program KinetAsyst (StateCollege, Pa.) was used for both procedures. Ki values were calculated from rate vs [inhibitor] plots by a nonlinear least squares fit of the data to the equation of Morrison for tight binding competitive inhibition [Morrison, J. F. Biochim. Biophys. Acta, 185, pp. 269-286 (1969)]. The KineTic program (BioKin Ltd) was used for this procedure.
Ki values are expressed in μM. Category “A” indicates <1 μM inhibition; category “B” indicates 1-100 μM inhibition; category “C” indicates >100 μM.
In general, Ki refers to the dissociation constant of the complex between target and ligand, obtained from inhibition or displacement. Take `CCC(C=O)NC(=O)C1CC(OC(=O)CC(C)C)CN1C(=O)C(NC(=O)C(NC(=O)c1cnccn1)C(C)C)C(C)C` (centres unmarked) [Compound 29] (Pyrazinecarbonyl-VV[Hyp](Isovaleryl)[Abu]-aldehyde; configuration not given here): the Ki is 1 to 100 µM. With `CCC(C=O)NC(=O)C1CC(OC(=O)Nc2ccc(Cl)cc2Cl)CN1C(=O)C(NC(=O)C(NC(=O)c1cnccn1)C(C)C)C(C)C` (centres unmarked) [Compound 30] (Pyrazinecarbonyl-VV[Hyp]([CO-X32])[Abu]-aldehyde; configuration not given here), the Ki lay within 1 to 100 µM. To `CCC(C=O)NC(=O)C1CC(OC(=O)Nc2cccc(Cl)c2Cl)CN1C(=O)C(NC(=O)C(NC(=O)c1cnccn1)C(C)C)C(C)C` (centres unmarked) [Compound 31] (Pyrazinecarbonyl-VV[Hyp]([CO-X42])[Abu]-aldehyde; configuration not given here) belongs 1 to 100 µM.

Consider `CCC(C=O)NC(=O)C1CC(OC(=O)Nc2cccc(Cl)c2)CN1C(=O)C(NC(=O)C(NC(=O)c1cnccn1)C(C)C)C(C)C` (centres unmarked) [Compound 32] (Pyrazinecarbonyl-VV[Hyp]([CO-NH(3-Cl-phenyl)])[Abu]-aldehyde; configuration not given here), for which the Ki lay within 1 to 100 µM. To `CCC(C=O)NC(=O)C1CC(OC(=O)Nc2cc(Cl)c(N)c(Cl)c2)CN1C(=O)C(NC(=O)C(NC(=O)c1cnccn1)C(C)C)C(C)C` (centres unmarked) [Compound 33] (Pyrazinecarbonyl-VV[Hyp]([CO-X6])[Abu]-aldehyde; configuration not given here) belongs > 100 µM; to `CCC(C=O)NC(=O)C1CC(OC(=O)Nc2ccc(N3CCCCC3)c([N+](=O)[O-])c2)CN1C(=O)C(NC(=O)C(NC(=O)c1cnccn1)C(C)C)C(C)C` (centres unmarked) [Compound 34] (Pyrazinecarbonyl-VV[Hyp]([CO-X19])[Abu]-aldehyde; configuration not given here), 1 to 100 µM.

As to `CCC(C=O)NC(=O)C1CC(OC(=O)Nc2ccc3ncsc3c2)CN1C(=O)C(NC(=O)C(NC(=O)c1cnccn1)C(C)C)C(C)C` (centres unmarked) [Compound 35] (Pyrazinecarbonyl-VV[Hyp]([CO-X17])[Abu]-aldehyde; configuration not given here), the Ki was in the range of 1 to 100 µM. To `CCC(C=O)NC(=O)C1CC(OC(=O)Nc2cccc(C(C)=O)c2)CN1C(=O)C(NC(=O)C(NC(=O)c1cnccn1)C(C)C)C(C)C` (centres unmarked) [Compound 36] (Pyrazinecarbonyl-VV[Hyp]([CO-X18])[Abu]-aldehyde; configuration not given here) belongs > 100 µM.

As to `CCC(C=O)NC(=O)C1CC(OC(=O)Nc2ccc(C(C)=O)cc2)CN1C(=O)C(NC(=O)C(NC(=O)c1cnccn1)C(C)C)C(C)C` (centres unmarked) [Compound 37] (Pyrazinecarbonyl-VV[Hyp]([CO-X39])[Abu]-aldehyde; configuration not given here), the Ki was in the range of 1 to 100 µM. Next, `CCC(C=O)NC(=O)C1CC(OC(=O)Nc2cccc(C#N)c2)CN1C(=O)C(NC(=O)C(NC(=O)c1cnccn1)C(C)C)C(C)C` (centres unmarked) [Compound 38] (Pyrazinecarbonyl-VV[Hyp]([CO-X34])[Abu]-aldehyde; configuration not given here): 1 to 100 µM; `CCC(C=O)NC(=O)C1CC(OC(=O)Nc2ccc([N+](=O)[O-])cc2)CN1C(=O)C(NC(=O)C(NC(=O)c1cnccn1)C(C)C)C(C)C` (centres unmarked) [Compound 39] (Pyrazinecarbonyl-VV[Hyp]([CO-pNA])[Abu]-aldehyde; configuration not given here): 1 to 100 µM. `CCC(C=O)NC(=O)C1CC(OC(=O)Nc2cccc([N+](=O)[O-])c2)CN1C(=O)C(NC(=O)C(NC(=O)c1cnccn1)C(C)C)C(C)C` (centres unmarked) [Compound 40] (Pyrazinecarbonyl-VV[Hyp]([CO-X30])[Abu]-aldehyde; configuration not given here): the Ki is 1 to 100 µM. As for `CCC(C=O)NC(=O)C1CC(OC(=O)Nc2cc(OC)ccc2OC)CN1C(=O)C(NC(=O)C(NC(=O)c1cnccn1)C(C)C)C(C)C` (centres unmarked) [Compound 41] (Pyrazinecarbonyl-VV[Hyp]([CO-X9])[Abu]-aldehyde; configuration not given here), the Ki was 1 to 100 µM. As for `CCC(C=O)NC(=O)C1CC(OC(=O)Nc2cccc(OC)c2)CN1C(=O)C(NC(=O)C(NC(=O)c1cnccn1)C(C)C)C(C)C` (centres unmarked) [Compound 42] (Pyrazinecarbonyl-VV[Hyp]([CO-NH(3-MeOPh)])[Abu]-aldehyde; configuration not given here), the Ki was in the range of 1 to 100 µM. Next, `CCC(C=O)NC(=O)C1CC(OC(=O)Nc2ccccc2OC)CN1C(=O)C(NC(=O)C(NC(=O)c1cnccn1)C(C)C)C(C)C` (centres unmarked) [Compound 43] (Pyrazinecarbonyl-VV[Hyp]([CO-X47])[Abu]-aldehyde; configuration not given here): 1 to 100 µM.

On to `CCC(C=O)NC(=O)C1CC(OC(=O)Nc2ccc3c(c2)OCO3)CN1C(=O)C(NC(=O)C(NC(=O)c1cnccn1)C(C)C)C(C)C` (centres unmarked) [Compound 44] (Pyrazinecarbonyl-VV[Hyp]([CO-NH(1,3-benzodioxol-5-yl)])[Abu]-aldehyde; configuration not given here), for which the Ki is 1 to 100 µM. Next, `CCC(C=O)NC(=O)C1CC(OC(=O)Nc2c(Cl)cccc2Cl)CN1C(=O)C(NC(=O)C(NC(=O)c1cnccn1)C(C)C)C(C)C` (centres unmarked) [Compound 45] (Pyrazinecarbonyl-VV[Hyp]([CO-X46])[Abu]-aldehyde; configuration not given here): 1 to 100 µM; `CCC(C=O)NC(=O)C1CC(OC(=O)Nc2ccc(Cl)c(Cl)c2)CN1C(=O)C(NC(=O)C(NC(=O)c1cnccn1)C(C)C)C(C)C` (centres unmarked) [Compound 46] (Pyrazinecarbonyl-VV[Hyp]([CO-X14])[Abu]-aldehyde; configuration not given here): 1 to 100 µM. To `CCC(C=O)NC(=O)C1CC(OC(=O)NCc2ccccc2)CN1C(=O)C(NC(=O)C(NC(=O)c1cnccn1)C(C)C)C(C)C` (centres unmarked) [Compound 50] (Pyrazinecarbonyl-VV[Hyp]([CO-NHBn])[Abu]-aldehyde; configuration not given here) belongs 1 to 100 µM; to `CCC(C=O)NC(=O)C1CC(OC(=O)Nc2cc(Cl)nc(Cl)c2)CN1C(=O)C(NC(=O)C(NC(=O)c1cnccn1)C(C)C)C(C)C` (centres unmarked) [Compound 51] (Pyrazinecarbonyl-VV[Hyp]([CO-X43])[Abu]-aldehyde; configuration not given here), 1 to 100 µM.

As to `CCC(C=O)NC(=O)C1CC(OC(=O)Nc2ccccc2-c2ccccc2)CN1C(=O)C(NC(=O)C(NC(=O)c1cnccn1)C(C)C)C(C)C` (centres unmarked) [Compound 52] (Pyrazinecarbonyl-VV[Hyp]([CO-X3])[Abu]-aldehyde; configuration not given here), the Ki is 1 to 100 µM. To `CCC(C=O)NC(=O)C1CC(OC(=O)Nc2cccc(Oc3ccccc3)c2)CN1C(=O)C(NC(=O)C(NC(=O)c1cnccn1)C(C)C)C(C)C` (centres unmarked) [Compound 53] (Pyrazinecarbonyl-VV[Hyp]([CO-X28])[Abu]-aldehyde; configuration not given here) belongs 1 to 100 µM. To `CCC(C=O)NC(=O)C1CC(OC(=O)Nc2ccccc2C(C)C)CN1C(=O)C(NC(=O)C(NC(=O)c1cnccn1)C(C)C)C(C)C` (centres unmarked) [Compound 54] (Pyrazinecarbonyl-VV[Hyp]([CO-X38])[Abu]-aldehyde; configuration not given here) belongs 1 to 100 µM; to `CCC(C=O)NC(=O)C1CC(OC(=O)Nc2ccccc2C(=O)OC)CN1C(=O)C(NC(=O)C(NC(=O)c1cnccn1)C(C)C)C(C)C` (centres unmarked) [Compound 55] (Pyrazinecarbonyl-VV[Hyp]([CO-2Abz-OMe])[Abu]-aldehyde; configuration not given here), 1 to 100 µM; to `CCOC(=O)c1cccc(NC(=O)OC2CC(C(=O)NC(C=O)CC)N(C(=O)C(NC(=O)C(NC(=O)c3cnccn3)C(C)C)C(C)C)C2)c1` (centres unmarked) [Compound 56] (Pyrazinecarbonyl-VV[Hyp]([CO-3Abz-OEt])[Abu]-aldehyde; configuration not given here), > 100 µM. Next, `CCC(C=O)NC(=O)C1CC(NC(=O)c2ccc(Cl)c(Cl)c2)CN1C(=O)C(NC(=O)C(NC(=O)c1cnccn1)C(C)C)C(C)C` (centres unmarked) [Compound 57]: 1 to 100 µM. In the case of `CCC(C=O)NC(=O)C1CC(NC(=O)NCc2ccccc2)CN1C(=O)C(NC(=O)C(NC(=O)c1cnccn1)C(C)C)C(C)C` (centres unmarked) [Compound 58], the Ki was in the range of 1 to 100 µM. Regarding `CCC(C=O)NC(=O)C1CC(NC(=O)N2CCOCC2)CN1C(=O)C(NC(=O)C(NC(=O)c1cnccn1)C(C)C)C(C)C` (centres unmarked) [Compound 59], the Ki lay in the range of 1 to 100 µM. To `CCC(C=O)NC(=O)C1CC(NC(=O)OCc2ccccc2)CN1C(=O)C(NC(=O)C(NC(=O)c1cnccn1)C(C)C)C(C)C` (centres unmarked) [Compound 60] belongs > 100 µM.
